Assay results: patent publication US20110217324A1, “INHIBITORS OF ANTIGEN PRESENTATION BY MHC CLASS II MOLECULES AND METHODS OF USE THEREOF” (priority 2007, published 2011)
Numbered stars: 1 amine (or outer) side, 2 acyl side, 3 side chain; on linkers, the order of the positions; unused ones are H or OH. Square brackets hold non-standard residues; d marks the D form. Peptide text beside a SMILES is read from it. * marks the point of attachment. Phe(3,4-Cl2) = N[C@@H](Cc1ccc(Cl)c(Cl)c1)C(=O)O; X1 = O=C(C(Cc1ccc2[nH]c3ccccc3c2c1)N[*:1])[*:2]; X7 = O=C([C@H](Cc1cccc2[nH]ncc12)N[*:1])[*:2]; Trp(1-Me) = Cn1cc(C[C@H](N)C(=O)O)c2ccccc21; X8 = Nc1nc(C[C@H](N[*:1])C(=O)[*:2])c[nH]1; X5 = O=C(C(Cc1cccc2[nH]ccc12)N[*:1])[*:2]; Oic = O=C(O)[C@@H]1C[C@@H]2CCCC[C@@H]2N1; Gly(cPent) = N[C@H](C(=O)O)C1CCCC1; Lys(Me2) = CN(C)CCCC[C@H](N)C(=O)O; Igl = N[C@H](C(=O)O)C1Cc2ccccc2C1; hCit = NC(=O)NCCCC[C@H](N)C(=O)O; Tic = O=C(O)[C@@H]1Cc2ccccc2CN1; Cit = NC(=O)NCCC[C@H](N)C(=O)O; Chg = N[C@H](C(=O)O)C1CCCCC1; X4 = c1cc(CCN*)c2cc[nH]c2c1; Pip = O=C(O)[C@@H]1CCCCN1; Morpholide = C1CN(*)CCO1; Nva = CCC[C@H](N)C(=O)O; Abu = CC[C@H](N)C(=O)O; βAla = NCCC(=O)O; Sar = CNCC(=O)O

Molecular target: T1, MHC DR2 (DRB1*1501/DRA*0101) (Homo sapiens, UniProt P01903+P01911)
T1 construct: endogenous in cells; host or cells: EBV homozygous (B lymphoblastoid) cell lines
Assay: HLA II Binding Assay (competition with biotinylated reference peptide)
Details: purified HLA-DR, biotinylated reference compound for DRB1*1501, 37° C. 24 h to 72 h; read-out: Inhibition of peptide binding IC50 (against MHC DR2 (DRB1*1501/DRA*0101))
Description: EBV homozygous cell lines are used as sources of human HLA class II molecules. […] The supernatant from lysed cells after centrifugation (100,000 g for 1 h) is applied to Sepharose 4B and protein A-Sepharose 4B columns and then to the specific antibody column. […] Fractions are immediately neutralized to pH 7 with 2 mM Tris-HCl (pH 6.8) and extensively dialyzed against 1 mM n-dodecyl β-D-maltoside, 150 mM NaCl, 10 mM phosphate (pH 7) buffer.
Samples (100 μl per well) are incubated in 96-wells polypropylene plates at 37° C. for 24 h to 72 h. After neutralization with 50 μl of 450 mM Tris HCl pH 7.5, 0.003% thimerosal, 0.3% BSA, 1 mM n-dodecyl β-D-maltoside buffer, samples are applied to 96-well maxisorp ELISA plates previously coated with 10 μg/ml L243 Mab and saturated with 100 mM Tris HCl pH=7.5, 0.3% BSA, and 0.003% thimerosal buffer. Samples are allowed to bind to the antibody-coated plates for 2 h at room temperature. Bound biotinylated compound is detected by incubating streptavidin-alkaline phosphatase conjugate, and after washings, by the addition of 4-methylumbelliferyl phosphate substrate. […] Maximal binding is determined by incubating the biotinylated peptide with the MHC class II molecule in the absence of competitor. Binding specificity is assessed by adding an excess of non-biotinylated peptide.

Molecule | IC50 [nM]
CC(=O)N[C@H](C(=O)N[C@H](C(=O)N[C@@H](Cc1c[nH]cn1)C(=O)N1Cc2ccccc2C[C@H]1C(=O)N[C@@H](Cc1ccccc1)C(N)=O)C1CCCCC1)C(C)C [AcV(Chg)H(Tic)F] (Ac-V[Chg]H[Tic]F-NH2) | 10 to 100
CC(=O)N[C@H](C(=O)N[C@@H](CCCNC(=N)N)C(=O)N1Cc2ccccc2C[C@H]1C(=O)N[C@@H](Cc1ccccc1)C(=O)N1CCCC[C@H]1C(=O)O)C1CCCC1 [Ac(Cpg)R(Tic)F(homo Pro)COOH] (Ac-[Gly(cPent)]R[Tic]F[Pip]-OH) | 10 to 100
CC(=O)N[C@H](C(=O)N[C@H](C(=O)N[C@@H](CCCNC(=N)N)C(=O)N1CCCC[C@H]1C(=O)N[C@@H](Cc1ccccc1)C(N)=O)C1CCCCC1)C(C)C [AcV(Chg)R(homo Pro)F] (Ac-V[Chg]R[Pip]F-NH2) | 10 to 100
CC(=O)N[C@H](C(=O)N[C@H](C(=O)N[C@@H](CCCNC(=N)N)C(=O)N1Cc2ccccc2C[C@H]1C(=O)NCCc1cccc2[nH]ccc12)C1CCCCC1)C(C)C [AcV(Chg)R(Tic)(4-ethylaminoindole)] (Ac-V[Chg]R[Tic]-X4) | 100 to 1000
CC(=O)N[C@H](C(=O)N[C@@H](CCCNC(=N)N)C(=O)N1Cc2ccccc2C[C@H]1C(=O)N[C@@H](Cc1cn(C)c2ccccc12)C(N)=O)C1CCCCC1 [Ac(Chg)R(Tic)(1-Me-Trp)] (Ac-[Chg]R[Tic][Trp(1-Me)]-NH2) | 100 to 1000
CC(=O)N[C@H](C(=O)N[C@H](C(=O)N[C@@H](Cc1c[nH]c(N)n1)C(=O)N1Cc2ccccc2C[C@H]1C(=O)N[C@@H](Cc1ccccc1)C(N)=O)C1CCCCC1)C(C)C [AcV(Chg)(2-amino His)(Tic)F] (Ac-V[Chg][X8][Tic]F-NH2) | 10 to 100
CC(=O)N[C@H](C(=O)N[C@@H](CCCNC(=N)N)C(=O)N1Cc2ccccc2C[C@H]1C(=O)N[C@@H](Cc1c[nH]c2ccccc12)C(N)=O)C1CCCCC1 [Ac(Chg)R(Tic)(Trp)] (Ac-[Chg]R[Tic]W-NH2) | 10 to 100
CC(=O)N[C@H](C(=O)N[C@H](C(=O)N[C@@H](CCCNC(=N)N)C(=O)N1[C@H](C(=O)N[C@@H](Cc2ccccc2)C(N)=O)C[C@@H]2CCCC[C@@H]21)C1CCCCC1)C(C)C [AcV(Chg)R(Oic)F] (Ac-V[Chg]R[Oic]F-NH2) | 100 to 1000
CC(=O)N[C@H](C(=O)N[C@H](C(=O)N[C@@H](CCCNC(=N)N)C(=O)N1Cc2ccccc2C[C@H]1C(=O)NC(Cc1ccc2[nH]c3ccccc3c2c1)C(N)=O)C1CCCCC1)C(C)C (stereo partly drawn) [AcV(Chg)R(Tic)-(3′-Carbazolyl Ala)] (Ac-V[Chg]R[Tic][X1]-NH2) | 100 to 1000
CC(=O)N[C@H](C(=O)N[C@H](C(=O)N[C@@H](CCCNC(=N)N)C(=O)N1Cc2ccccc2C[C@H]1C(=O)N[C@@H](Cc1ccccc1)C(=O)N1CCOCC1)C1Cc2ccccc2C1)C(C)C [AcV(Indgly)R(Tic)F-CO(morpholine)] (Ac-V[Igl]R[Tic]F-Morpholide) | 10 to 100
(NH2-Beta Ala)V(Chg)(pyrimidinyl)(Tic)F | 10 to 100
CC(=O)N[C@H](C(=O)N[C@H](C(=O)N[C@@H](CCCNC(=N)N)C(=O)N1Cc2ccccc2C[C@H]1C(=O)N[C@@H](Cc1ccccc1)C(N)=O)C1CCCCC1)[C@@H](C)O [Ac(Thr)(Chg)R(Tic)F] (Ac-T[Chg]R[Tic]F-NH2) | 10 to 100
CC(=O)N[C@H](C(=O)N[C@@H](CCCCN(C)C)C(=O)N1Cc2ccccc2C[C@H]1C(=O)N[C@@H](Cc1ccccc1)C(=O)N1CCCC[C@H]1C(N)=O)C1CCCC1 [Ac(Cpg)(diMeK)(Tic)F(homo Pro)] (Ac-[Gly(cPent)][Lys(Me2)][Tic]F[Pip]-NH2) | 10 to 100
CC(=O)N[C@H](C(=O)N[C@@H](CCCNC(=N)N)C(=O)N1Cc2ccccc2C[C@H]1C(=O)NC(Cc1cccc2[nH]ccc12)C(N)=O)C1CCCCC1 (stereo partly drawn) [Ac(Chg)R(Tic)-(4′-Indolyl Ala)] | 10 to 100
CC(=O)N[C@H](C(=O)N[C@H](C(=O)N[C@@H](CCCNC(N)=O)C(=O)N1Cc2ccccc2C[C@H]1C(=O)N[C@@H](Cc1ccccc1)C(N)=O)C1CCCCC1)C(C)C [AcV(Chg)(Cit)(Tic)F] (Ac-V[Chg][Cit][Tic]F-NH2) | 1 to 10
CC(=O)N[C@H](C(=O)N[C@H](C(=O)N[C@@H](CCCNC(=N)N)C(=O)N1Cc2ccccc2C[C@H]1C(=O)N[C@@H](Cc1ccccc1)C(=O)O)C1CCCCC1)C(C)C [AcV(Chg)R(Tic)F-COOH] (Ac-V[Chg]R[Tic]F-OH) | 10 to 100
CC(C)[C@H](NC(=O)CN)C(=O)N[C@H](C(=O)N[C@@H](CCCNC(N)=O)C(=O)N1Cc2ccccc2C[C@H]1C(=O)N[C@@H](Cc1ccccc1)C(N)=O)C1CCCCC1 [(NH2-Gly)V(Chg)(Cit)(Tic)F] (H-GV[Chg][Cit][Tic]F-NH2) | 1 to 10
CC(C)[C@H](NC(=O)CN)C(=O)N[C@H](C(=O)N[C@@H](CCCNC(=N)N)C(=O)N1Cc2ccccc2C[C@H]1C(=O)N[C@@H](Cc1ccccc1)C(N)=O)C1CCCCC1 [(NH2-Gly)V(Chg)R(Tic)F] (H-GV[Chg]R[Tic]F-NH2) | 1 to 10
CC(=O)N[C@H](C(=O)N[C@@H](CCCNC(=N)N)C(=O)N1CCCC[C@H]1C(=O)N[C@@H](Cc1ccccc1)C(=O)N1CCCC[C@H]1C(N)=O)C1CCCCC1 [Ac(Chg)R(homo Pro)F(homo Pro)] (Ac-[Chg]R[Pip]F[Pip]-NH2) | 100 to 1000
CC(=O)N[C@H](C(=O)N[C@H](C(=O)N[C@@H](CCCNC(=N)N)C(=O)N1Cc2ccccc2C[C@H]1C(=O)N[C@@H](Cc1ccccc1)C(N)=O)C1Cc2ccccc2C1)C(C)C [AcV(Indgly)R(Tic)F] (Ac-V[Igl]R[Tic]F-NH2) | 10 to 100

The next lines start with the values.

IC50 [nM] | Molecule
1 to 10 | CC[C@H](N)C(=O)N[C@H](C(=O)N[C@H](C(=O)N[C@@H](CCCNC(=N)N)C(=O)N1Cc2ccccc2C[C@H]1C(=O)N[C@@H](Cc1ccccc1)C(N)=O)C1CCCCC1)C(C)C [(NH2-Abu)V(Chg)R(Tic)F] (H-[Abu]V[Chg]R[Tic]F-NH2)
1 to 10 | CC(=O)N[C@H](C(=O)N[C@H](C(=O)N[C@@H](CCCNC(=N)N)C(=O)N1Cc2ccccc2C[C@H]1C(=O)N[C@@H](Cc1cccc2[nH]ncc12)C(N)=O)C1CCCCC1)C(C)C [AcV(Chg)R(Tic)(4-Indazole)] (Ac-V[Chg]R[Tic][X7]-NH2)
1 to 10 | CC(=O)N[C@H](C(=O)N[C@H](C(=O)N[C@@H](CCCCNC(N)=O)C(=O)N1Cc2ccccc2C[C@H]1C(=O)N[C@@H](Cc1ccccc1)C(N)=O)C1CCCCC1)C(C)C [AcV(Chg)(homo Cit)(Tic)F] (Ac-V[Chg][hCit][Tic]F-NH2)
1 to 10 | CC[C@H](N)C(=O)N[C@H](C(=O)N[C@H](C(=O)N[C@@H](CCCNC(N)=O)C(=O)N1Cc2ccccc2C[C@H]1C(=O)N[C@@H](Cc1ccccc1)C(N)=O)C1CCCCC1)C(C)C [(NH2-Abu)V(Chg)(Cit)(Tic)F] (H-[Abu]V[Chg][Cit][Tic]F-NH2)
1 to 10 | CC(=O)N[C@H](C(=O)N[C@H](C(=O)N[C@@H](CCCNC(=N)N)C(=O)N1Cc2ccccc2C[C@H]1C(=O)N[C@@H](Cc1ccc(Cl)c(Cl)c1)C(N)=O)C1CCCCC1)C(C)C [AcV(Chg)R(Tic)(3,4-dichloro Phe)] (Ac-V[Chg]R[Tic][Phe(3,4-Cl2)]-NH2)
1 to 10 | CNCC(=O)N[C@H](C(=O)N[C@H](C(=O)N[C@@H](CCCNC(N)=O)C(=O)N1Cc2ccccc2C[C@H]1C(=O)N[C@@H](Cc1ccccc1)C(N)=O)C1CCCCC1)C(C)C [(NH2-Sar)V(Chg)(Cit)(Tic)F] (H-[Sar]V[Chg][Cit][Tic]F-NH2)
1 to 10 | CC(=O)N[C@H](C(=O)N[C@H](C(=O)N[C@@H](CCCNC(=N)N)C(=O)N1Cc2ccccc2C[C@H]1C(=O)N[C@@H](Cc1ccccc1)C(N)=O)C1CCCC1)C(C)C [AcV(Cpg)R(Tic)F] (Ac-V[Gly(cPent)]R[Tic]F-NH2)
1 to 10 | CCC[C@H](NC(C)=O)C(=O)N[C@H](C(=O)N[C@@H](CCCNC(=N)N)C(=O)N1Cc2ccccc2C[C@H]1C(=O)N[C@@H](Cc1ccccc1)C(N)=O)C1CCCCC1 [Ac(nor-V)(Chg)R(Tic)F] (Ac-[Nva][Chg]R[Tic]F-NH2)
1 to 10 | CNC(=O)[C@H](Cc1ccccc1)NC(=O)[C@@H]1Cc2ccccc2CN1C(=O)[C@H](CCCNC(=N)N)NC(=O)[C@@H](NC(=O)[C@@H](NC(C)=O)C(C)C)C1Cc2ccccc2C1 [AcV(Indgly)R(Tic)F-CONHMe] (Ac-V[Igl]R[Tic]F-NHMe)
1 to 10 | CC(=O)N[C@H](C(=O)N[C@H](C(=O)N[C@@H](CCCNC(=N)N)C(=O)N1Cc2ccccc2C[C@H]1C(=O)NC(Cc1cccc2[nH]ccc12)C(N)=O)C1CCCCC1)C(C)C (stereo partly drawn) [AcV(Chg)R(Tic)-(4′-Indolyl Ala)] (Ac-V[Chg]R[Tic][X5]-NH2)
1 to 10 | CC(C)[C@H](NC(=O)CCN)C(=O)N[C@H](C(=O)N[C@@H](CCCNC(=N)N)C(=O)N1Cc2ccccc2C[C@H]1C(=O)N[C@@H](Cc1ccccc1)C(N)=O)C1CCCCC1 [(NH2-Beta Ala)V(Chg)R(Tic)F] (H-[βAla]V[Chg]R[Tic]F-NH2)
1 to 10 | CC(=O)N[C@H](C(=O)N[C@H](C(=O)N[C@@H](CCCNC(=N)N)C(=O)N1Cc2ccccc2C[C@H]1C(=O)N[C@@H](Cc1c[nH]c2ccccc12)C(N)=O)C1CCCCC1)C(C)C [AcV(Chg)R(Tic)(Trp)] (Ac-V[Chg]R[Tic]W-NH2)
1 to 10 | CC(C)[C@H](NC(=O)CCN)C(=O)N[C@H](C(=O)N[C@@H](CCCNC(N)=O)C(=O)N1Cc2ccccc2C[C@H]1C(=O)N[C@@H](Cc1ccccc1)C(N)=O)C1CCCCC1 [(NH2-Beta Ala)V(Chg)(Cit)(Tic)F] (H-[βAla]V[Chg][Cit][Tic]F-NH2)
